Laboratory results published in patent US10334845B2, “Olfactory ligands” (University College Cardiff Consultants Limited, priority 2015, dated 2019).
Values joined by “and” are separate entries in the source; they are usually repeats but may differ in a detail not shown here. Equal entries are not always repeated.

Tests used:
[1] = system: grain aphids, Sitobion avenae; test: Behavioural assay, four-arm olfactometer; format: in vivo; conditions: for Time spent in control arms (mean of 3) / Time spent in treatment arm: mean (SE), 16 min, 10 replicates; for Insect repellent / attractant activity (in words): summary statement
Procedure: The responses of individual grain aphids, Sitobion avenae, to test compounds were observed using a Perspex four-arm olfactometer (Pettersson, J.; Ent. Scand. 1, 63-73 (1970); Webster, B., et al. Animal Behav. 79, 451-457 (2010)), which was maintained at 23° C. and lit from above. A filter paper disc was laid in the bottom section of the olfactometer to provide traction for the aphid and the middle and top sections were fitted into place very tightly to give a good seal. The four arms, consisting of the barrels of disposable 10 mL syringes (Plastipak), were fitted tightly into the holes of the middle section, and filtered air was drawn through them and into the body of the olfactometer through a tube inserted into a hole in the centre of the top section and attached to a pump. The measured total flow rate was 200 mL/min and it was assumed that the flow rate through each arm was 50 mL/min. The three control arms each contained a filter paper strip to which had been applied 10 µL hexane which had been allowed to evaporate for 30 s. The treatment arm contained a filter paper strip to which the test compound in 10 μL of hexane (20-200 ng μL^−1) had been applied and left for 30 s for the hexane to evaporate. A single aphid was introduced through the central hole and the suction tube quickly reinserted. The time spent in each arm and in the central zone were recorded, using specialist software (OLFA, Udine, Italy), for the next 16 minutes. The olfactometer was rotated through 90° every 2 min to eliminate any directional bias. Each assay comprised 10 replicates and the mean time spent in treated and control arms were compared using a paired t-test (Genstat).
Data were recorded as mean (±SE) time spent in control (solvent only) or treatment arms and were analysed using Students T-test.

[2] = system: grain aphid (Sitobion avenae); conditions: background statement; cited from earlier work

C=C1/C=C/[C@H](C(C)C)CC/C(C)=C/CC1 [Comparator Compound Ia, (S)-germacrene D]
Time spent in control arms (mean of 3) ([1]; dose 0.2 μg): 2.31 (0.26) min
Time spent in treatment arm ([1]; dose 0.2 μg): 1.14 (0.25) min
Time spent in treatment arm ([1]; dose 1.0 μg): 1.63 (0.35) min
Time spent in control arms (mean of 3) ([1]; dose 2.0 μg): 2.29 (0.41) min
Time spent in treatment arm ([1]; dose 2.0 μg): 0.50 (0.14) min

C=C1C=C[C@H](C(C)CC)CCC(C)=CCC1 (stereo partly drawn) [Comparator Compound Ib, (S)-12-methylgermacrene D]
Time spent in control arms (mean of 3) ([1]; dose 0.9 μg): 2.21 (0.42) min
Time spent in treatment arm ([1]; dose 0.9 μg): 1.20 (0.24) min
Time spent in control arms (mean of 3) ([1]; dose 1.2 μg): 2.66 (0.17) min
Time spent in treatment arm ([1]; dose 1.2 μg): 2.13 (0.25) min

C=C1C=C[C@H](C(C)C)CCC(CC)=CCC1 [Comparator Compound Ic, (S)-14-methylgermacrene D]
Time spent in control arms (mean of 3) ([1]; dose 0.2 μg): 2.21 (0.27) min
Time spent in treatment arm ([1]; dose 0.2 μg): 2.41 (0.73) min
Time spent in control arms (mean of 3) ([1]; dose 1.0 μg): 2.61 (0.28) min
Time spent in treatment arm ([1]; dose 1.0 μg): 3.27 (0.68) min
Time spent in control arms (mean of 3) ([1]; dose 2.0 μg): 2.01 (0.23) min
Time spent in treatment arm ([1]; dose 2.0 μg): 1.65 (0.39) min

C=C1C=C[C@H](C(C)C)CCC(C)=C(F)CC1 [Comparator Compound Ih, (S)-1-fluorogermacrene D]
Time spent in control arms (mean of 3) ([1]; dose 1.0 μg): 2.54 (0.27) min
Time spent in treatment arm ([1]; dose 1.0 μg): 2.62 (0.50) min
Time spent in control arms (mean of 3) ([1]; dose 2.0 μg): 2.60 (0.26) min
Time spent in treatment arm ([1]; dose 2.0 μg): 2.46 (0.39) min

CC=C1C=C[C@H](C(C)C)CCC(C)=CCC1 [Compound If, (S)-15-methylgermacrene D]
Time spent in control arms (mean of 3) ([1]; dose 0.8 μg): 2.61 (0.26) min
Time spent in treatment arm ([1]; dose 0.8 μg): 1.38 (0.38) min
Time spent in control arms (mean of 3) ([1]; dose 1.0 μg): 2.52 (0.23) min
Time spent in treatment arm ([1]; dose 1.0 μg): 1.92 (0.31) min
Insect repellent / attractant activity (in words) [1]: much greater insect repellent activity

CC=C1C=C[C@H](C(C)C)CCC(CC)=CCC1 [Compound Ig, (S)-14,15-dimethylgermacrene D]
Time spent in control arms (mean of 3) ([1]; dose 0.8 μg): 2.60 (0.22) min
Time spent in treatment arm ([1]; dose 0.8 μg): 3.38 (0.38) min
Time spent in control arms (mean of 3) ([1]; dose 1.0 μg): 2.27 (0.11) min and 2.39 (0.20) min
Time spent in treatment arm ([1]; dose 1.0 μg): 2.77 (0.31) min and 2.97 (0.40) min
Time spent in control arms (mean of 3) ([1]; dose 1.2 μg): 1.96 (0.21) min
Time spent in treatment arm ([1]; dose 1.2 μg): 2.92 (0.23) min
Insect repellent / attractant activity (in words) [1]: strong insect attractant properties

C=C1/C=C/[C@H](C(C)C)CC/C(C)=C/CC1 [Germacrene D]
Insect repellent activity (in words) [2]: repel insects

C=C1/C=C/[C@@H](C(C)C)CC/C(C)=C/CC1 [III, (R)-germacrene D]
Time spent in control arms (mean of 3) ([1]; dose 1.0 μg): 2.57 (0.19) min
Time spent in treatment arm ([1]; dose 1.0 μg): 3.15 (0.53) min
Time spent in control arms (mean of 3) ([1]; dose 2.0 μg): 1.86 (0.29) min
Time spent in treatment arm ([1]; dose 2.0 μg): 2.65 (0.52) min

CC1CCCC(C)CCC(C(C)C)CC1 (stereo not shown) [IV, germacrane]
Time spent in control arms (mean of 3) ([1]; dose 1.0 μg): 2.45 (0.30) min
Time spent in treatment arm ([1]; dose 1.0 μg): 2.04 (0.58) min
Time spent in control arms (mean of 3) ([1]; dose 2.0 μg): 2.39 (0.24) min
Time spent in treatment arm ([1]; dose 2.0 μg): 2.38 (0.50) min
